Test results reported in EP4799701A2, “PYRIMID-2-YL-PYRAZOLE COMPOUNDS AS IRAK INHIBITORS” (Rigel Pharmaceuticals, Inc., priority 2022, dated 2023).

What was measured:
[1] = test system: IL-1β-induced production of the cytokine IL-6; assay: IL-1β-induced IL-6 in primary human endothelial cells; format: cell-based; conditions: result in words
[2] = Plasma protein binding, free drug comparison across species; format: in vitro ADME; conditions: free drug in rat, dog, monkey and human proteins
Experimental: Brain and plasma drug binding were performed by equilibrium dialysis using the Rapid Equilibrium Dialysis (RED) device. Briefly, 300 µL of plasma or brain homogenate (1 brain /3 buffer) containing drug (5 µM) was equilibrated (4-18 h) against 500 µL of buffered saline. After incubation, the concentration of drug in plasma/brain homogenate and buffer was determined by LC-MS/MS.
Higher free drug in plasma and brain allow for more drug to interact with the target. [drawing 34]
From a free drug perspective compound I-1 was approximately 6-times more free than Comparision-1 in rat, dog, monkey and human proteins.

TLR7-induced TNF-α = TLR7-induced TNF-α in human PBMC (resiquimod); format: cell-based; conditions: human PBMCs; result in words
Experimental: Assay Protocol: TLR7-induced TNF-α in human Peripheral Blood Mononuclear Cells (PBMC).
• Corning™ Costar™ 96-Well, Cell Culture-Treated, U-Shaped-Bottom Microplate (Fisher, Cat# 07-200-95) • Human PBMC (ALL Cells, Cat# PB002) • Resiquimod (InvivoGen, Cat No. tlrl-r848) • Human TNF-α DuoSet ELISA Kit (R&D Systems, Cat# DY210) • Recombinant Human IFN-β (Peprotech, Cat# 300-02BC) • RPMI with 10% FBS • Axygen 96well, 1.1 mL, sterile (VWR International, Cat# 47734-788)
Human peripheral blood mononuclear cells (PBMC) were seeded at 100,000 cells per well in 100 µL of RPMI with 10% FCS and primed overnight with 8 ng/ml of IFN-β at 37 °C, 5% CO2. Compound was serially diluted in DMSO from 2 mM in 3-fold dilutions, and then diluted 1:100 in RPMI 1640 complete media with 10% FBS (2 x stock). The PBMCs were pre-incubated with test compound for 1 hour at 37 °C, 5% CO2 by adding 100 µL of RPMI media containing 2x concentrated test compound per well (0.5% final DMSO concentration).
The PBMCs were stimulated with resiquimod (10 µL per well of 21x concentrated resiquimod solution in RPMI media to give a final concentration of 0.1 µg/ml) at 37 °C, 5% CO2 for an additional 18 hours. 100 µL of supernatant per well was harvested to measure TNF-α. TNF-α was quantitated using DuoSet ELISA Kit per manufacturer's protocol.

TLR4-dependent = TLR4-dependent cytokine production in mouse macrophages; format: cell-based; conditions: result in words

CCO[C@H]1CC[C@H](n2cc(NC(=O)c3csc(-c4cn[nH]c4)n3)c(-c3ncccn3)n2)CC1 [Compound I-1, N-(1-((1r,4r)-4-ethoxycyclohexyl)-3-(pyrimidin-2-yl)-1H-pyrazol-4-yl)-2-(1H-pyrazol-4-yl)thiazole-4-carboxamide]
IL-1β-induced production of the cytokine IL-6 [1]: potently inhibits
more free than Comparision-1 [2]: approximately 6 times
TLR7-dependent cytokine production (TLR7-induced TNF-α): potent inhibitor
TLR4-dependent cytokine production (TLR4-dependent): potent inhibitor
